# US7078401B2, “Thiophenylaminoimidazolines as IP antagonists” (Roche Palo Alto LLC, priority 2003, dated 2006)
# Counter-ions that a name gives are not always drawn.
row,melting point [°C],SMILES
1,148 to 152,"Clc1ccc(Sc2ccc(NC3=NCCCC3)cc2)cc1 (as salt: hydrochloride) [Compound 73, [4-(4-Chloro-phenylsulfanyl)-phenyl]-(3,4,5,6-tetrahydro-pyridin-2-yl)-amine]"
2,149 to 150,"COc1ccc(Sc2ccc(NC3=NCCN3)cc2)cc1 (as salt: hydrochloride) [Compound 5, (4,5-Dihydro-1H-imidazol-2-yl)-[4-(4-methoxy-phenylsulfanyl)-phenyl]-amine]"
3,127 to 130,"Clc1ccc(Sc2ccc(CNC3=NCCN3)cc2)cc1 (as salt: hydrochloride) [Compound 9, [4-(4-Chloro-phenylsulfanyl)-benzyl]-(4,5-dihydro-1H-imidazol-2-yl)-amine]"
4,140 to 141,"COc1ccc(Sc2ccc(NC(=N)N)cc2)cc1 [Example 2, N-[4-(4-Methoxy-phenylsulfanyl)-phenyl]-guanidine]"
